Common to all, as to type: physicochemical
A short description of series [1]: Loading capacity (limiting organic concentration). The following applies: 0.2 mol/L in TPH/1-octanol (95:5)%vol; 3 mol/L nitric acid. The protocol: The organic solutions were prepared and equilibrated with 3 mol/L nitric acid as detailed in the previously described sections A) and B.
Aqueous solutions of 3 mol/L nitric acid, spiked with 600 Bq of ^152Eu and 600 Bq of ^241Am, containing different amounts of stable Eu(III) (0.004 mol/L, 0.008 mol/L, 0.016 mol/L, 0.032 mol/L, 0.064 mol/L and 0.128 mol/L), obtained dissolving the corresponding amount of Eu (NO3)3·6H2O salt in 3 mol/L nitric acid, were prepared.
600 µL of equilibrated organic phase were contacted with 600 µL of aqueous phase of the corresponding concentration of Eu(III). It was stirred vigorously by means of an oscillating shaker for 15 minutes. The phases were separated by centrifugation at 5000 rpm and 400 µL of each of the phases were taken for the determination of the concentration of ^152Eu and ^241Am, as described previously in section C).
The loading capacity was determined according to the limiting organic concentration or LOC, which is the highest concentration of metal admitted by the organic phase before the third phase appears, as a result of the organic phase separating into two phases: a light or less heavy phase formed mainly by the organic solvent and a heavy phase formed by the complex formed by the extractant and the metal. […]

A short description of the next series: Radiolytic stability. Particulars: 60Co irradiation, 4 kGy/h, up to 1000 kGy. The procedure: The tests of stability against irradiation were carried out in the NAYADE facility at CIEMAT site, with external ^60Co sources with an approximate activity of 5000 Ci, with a homogeneous irradiation flux. The dose rate applied in all the experiments was 4 kGy/h and integrated doses of 250 kGy, 500 kGy, 750 kGy and 1000 kGy were considered. The irradiation device consists of a metal cylinder which is introduced in a rack wherein the ^60CO sources are placed radially, such that the irradiation is homogeneous. The irradiation process is carried out submersing the device in a pool of water with a depth of 4 meters.
Irradiation tests of the solid compound (in the absence of solvent) and of the compound dissolved in the "n-dodecane/1-octanol (95:5)%vol" mixture, equilibrated with 3 mol/L nitric acid, were carried out. The organic solutions were prepared and equilibrated as detailed in the previous sections A) and B).
Once each programmed integrated dose was reached, the extraction capability of the organic samples was evaluated as detailed in section C).
The irradiation of compound 4 in solid form (in the absence of solvent) and dissolved at a 0.1 mol/L concentration in the "n-dodecane/1-octanol 1 (95:5)%vol" mixture, equilibrated with 3 mol/L nitric acid, was carried out. […] After each integrated dose, the extraction capability of Am(III) and Eu(III) was evaluated as described in section C. […]

Series [2] can be described thus: Hydrolytic stability, extraction capability after contact with 3 mol/L nitric acid. Particulars: 0.1 mol/L in n-dodecane/1-octanol (95:5)%vol; for extraction capability of Eu (III) (DEu): during the different contact time periods with 3 mol/L nitric acid. The procedure: The organic solutions of the compounds to be tested were prepared and equilibrated with 3 mol/L nitric acid, as has been indicated in sections A) and B).
Then, 700 µL of the equilibrated organic phase were put in vials of an approximate volume of 2 mL and were contacted with 700 µL of 3 mol/L nitric acid. They were stirred vigorously in an oscillating shaker for periods of 7, 15, 24, 36, 42, 50 and 66 days. After each permanent contact period with the nitric acid aqueous phase, the extraction capability of the organic solution was evaluated, taking 600 µL of the corresponding organic phase and contacting it with 600 µL of aqueous phase formed by a 3 mol/L nitric acid solution spiked with 600 Bq of ^152Eu and with 600 Bq of ^241Am. It was stirred vigorously by means of an oscillating shaker for 15 minutes. The separation of the phases was carried out by centrifugation at 5000 rpm. 400 µL of each of the phases were taken for the determination of the concentration of ^152Eu and ^241Am, as in section C).
After the permanent contact periods with the 3 mol/L nitric acid solution, the extraction capability of the organic solutions of both compounds was evaluated with 3 mol/L nitric acid solutions containing 600 Bq of ^152 Eu and 600 Bq of ^241Am.

Data on 2 substances can be found in patent publication EP1923473B1, “Bis-diglycolamides (BISDGA) as new extractants for lanthanides [Ln(III)] and actinides [An(III)] from aqueous high-level wastes” (Universidad Autónoma de Madrid, priority 2006, dated 2008).

Consider “2-Dioctylcarbamoylmethoxy-N-[3-[3-(2-dioctylcarbamoyl-methoxyacetylamino)propoxy]propyl]acetamide [Compound 18]”, for which the LOCEu in series [1] is ~ 0.06 mol/L. For the same substance, the stability against radiolysis result in the series “Radiolytic stability” is reported as “very stable against radiolysis”. Also, the DAm in series [2] (after 42 days of permanent contact with 3 mol/L nitric acid) is given as 280. Also, the “extraction capability of Eu (III) (DEu)” value in series [2] is given as “remains constant”.
In the case of “2-Dioctylcarbamoylmethoxy-N-[3-[(2-dioctylcarbamoyl-methoxy-acetylamino)methyl]benzyl]acetamide [Compound 4]”, the LOCEu in series [1] was ~ 0.03 mol/L. In addition, the stability against radiolysis result in the series “Radiolytic stability” is recorded as “very stable against radiolysis”. In series [2] (after 66 days of permanent contact with 3 mol/L nitric acid), the DAm amounted to 145. The “extraction capability of Eu (III) (DEu)” value in series [2] is given as “remains constant”.
